Experimental findings from article PMC7279038, “Antioxidant and Neuroprotective Effects Induced by Cannabidiol and Cannabigerol in Rat CTX-TNA2 Astrocytes and Isolated Cortexes” (International Journal of Molecular Sciences, 2020) are described below.

Molecules are shown by their SMILES.

What all share (details): mean ± S.D., n = 3
The nature of experiment [1]: Cupric reducing antioxidant capacity (CUPRAC). As for the experimental part:
For the cupric ion reducing activity (CUPRAC) activity assay, sample solution was added to premixed reaction mixture containing CuCl2 (1 mL, 10 mM), neocuproine (1 mL, 7.5 mM) and NH4Ac buffer (1 mL, 1 M, pH 7.0). Similarly, a blank was prepared by adding sample solution (0.5 mL) to premixed reaction mixture […] without CuCl2. Then, the sample and blank absorbances were read at 450 nm after a 30 min incubation at room temperature. The absorbance of the blank was subtracted from that of the sample. CUPRAC activity was expressed as IC50 values.

The nature of experiment [2]: Ferric reducing antioxidant power (FRAP). How it is done:
For the ferric reducing antioxidant power (FRAP) activity assay, sample solution was added to premixed FRAP reagent (2 mL) containing acetate buffer (0.3 M, pH 3.6), 2,4,6-tris(2-pyridyl)-S-triazine (TPTZ) (10 mM) in 40 mM HCl and ferric chloride (20 mM) in a ratio of 10:1:1 (v/v/v). Then, the sample absorbance was read at 593 nm after a 30 min incubation at room temperature. FRAP activity was expressed as IC50 values.

The nature of experiment [3]: DPPH scavenging ability test. As for the experimental part:
For the 1,1-diphenyl-2-picrylhydrazyl (DPPH) radical scavenging assay, sample solution was added to 4 mL of a 0.004% methanol solution of DPPH. The sample absorbance was read at 517 nm after a 30 min incubation at room temperature in the dark. DPPH radical scavenging activity was expressed as IC50 values.

The nature of experiment [4]: ABTS scavenging ability test. As for the experimental part:
For the 2,2′-azino-bis(3-ethylbenzothiazoline) 6-sulfonic acid (ABTS) radical scavenging assay, ABTS+ was produced directly by reacting 7 mM ABTS solution with 2.45 mM potassium persulfate and allowing the mixture to stand for […] in the dark at room temperature. Prior to beginning the assay, ABTS solution was diluted with methanol to an absorbance of 0.700 ± 0.02 at 734 nm. Sample solution was added to ABTS solution (2 mL) and mixed. The sample absorbance was read at 734 nm after a 30 min incubation at room temperature. The ABTS radical scavenging activity was expressed as IC50 values.

Regarding `Cc1c(C)c2c(c(C)c1O)CCC(C)(C(=O)O)O2` (stereo not shown) [Trolox], the IC50 is 500 ± 10 µM in experiment [1], 180 ± 10 µM in experiment [2], 210 ± 10 µM in experiment [3] and 410 ± 10 µM in experiment [4].
